{"source": "paper PMC3639484", "about": "(Journal of chromatography. A, 2013)", "test": "HILIC/SALT", "format": "physicochemical", "details": "isocratic acetonitrile 0%, 10%, 20%, 30%, 40%, 50% and 60% in 0.2% aq. H3PO4, 30 °C", "data": [{"substance": "Ac-KWKSFLKTFSKAKKKKLKTLLKAISK-NH2 [Peptide D14]", "values": [{"measurement": "retention on Penta-HILIC column", "value": "No retention"}]}]}
